Earlier results as cited in patent publication US12465047B2, “Preparation method for L-glufosinate-ammonium powder” (ZHEJIANG UNIVERSITY OF TECHNOLOGY, priority 2020, dated 2025).

Details: stated as the reason for adjusting pH to 2-2.5 in step (4)

## CP(=O)(O)CC[C@H](N)C(=O)O.N [L-glufosinate ammonium]
  isoelectric point: 2.66 pH
